From patent US20100136603A1, “KIT AND A METHOD FOR EVALUATING TOXICITY USING SPORE RELEASE BY THE GREEN ALGA ULVA” (priority 2008, published 2010)

System: Ulva pertusa Kjellman
Settings: for order of toxicity of the heavy metal, estimated by EC50: rank order among heavy metals, spore release, 96 hours
Experimental: The present inventors collected Ulva pertusa Kjellman from the coast of Ahnin in Korea, and the leaf (thallus) of Ulva pertusa Kjellman was cut to have a coin shape having a diameter of 6 mm, and dispensed in the plastic cell plate containing 10 ml artificial sea water (35%) medium (Coralife, Energy Savers, California. USA) supplemented with 1 mM KNO3 and 0.1 mM K2HPO4.
The toxicity test was then carried out by adding toxic materials (toxicants) into the medium, keeping the other environmental conditions constant. The used toxic materials and the target concentration are described in the following Table 1.
After cultivated for 96 hours, the thallus having the coin shape was collected, and the area with white color was measured by using the microscope (Axioscope) having a magnification of 400× and the image analysis system (MV200, Samsung, Korea).
The mother liquid of TBTO was prepared in acetone that was mixed with the sea water (0.01%); here an acetone control group in the same concentration was also tested. The toxicities of volatile organic compounds (VOC) [acetone, ethanol, formalin and methanol) were tested by adding aqueous volatile organic compounds (VOC) to the medium to achieve the target concentration.

[Cd] [Cd, cadmium]
order of toxicity of the heavy metal, estimated by EC50: Cu>Cd>Zn>Pb

[Cu] [Cu, copper]
order of toxicity of the heavy metal, estimated by EC50: Cu>Cd>Zn>Pb

[Zn] [Zn, zinc]
order of toxicity of the heavy metal, estimated by EC50: Cu>Cd>Zn>Pb

CC(C)=O [acetone]
order of toxicity of the volatile organic compound (VOC) (in vivo): formaline>methanol>ethanol>acetone

CCO [ethanol]
order of toxicity of the volatile organic compound (VOC) (in vivo): formaline>methanol>ethanol>acetone

C=O [formaline]
half effective concentration (EC50) (in vivo): 0.788 μl/L
order of toxicity of the volatile organic compound (VOC) (in vivo): formaline>methanol>ethanol>acetone

CO [methanol]
order of toxicity of the volatile organic compound (VOC) (in vivo): formaline>methanol>ethanol>acetone
